# Measurements published in patent US20040072738A1, “Analogues of thiocoraline and be-22179” (priority 2000, published 2004).
# Bridge positions count the residues as written; N and C are the ends. Square brackets hold non-standard residues; d marks the D form. Peptide text beside a SMILES is read from it. I, II: the chains in the order shown. * marks the point of attachment. Quinaldoyl(3-OH) = O=C(c1nc2ccccc2cc1O)*; NMeC = CN[C@@H](CS)C(=O)O
# Legend:
# DNA polymerase α = biological target: T1, DNA polymerase α (Homo sapiens, UniProt P09884); details: at concentrations that inhibit cell cycle progression and clonogenicity; cited from earlier work
# T1 sequence (P09884 1-1462): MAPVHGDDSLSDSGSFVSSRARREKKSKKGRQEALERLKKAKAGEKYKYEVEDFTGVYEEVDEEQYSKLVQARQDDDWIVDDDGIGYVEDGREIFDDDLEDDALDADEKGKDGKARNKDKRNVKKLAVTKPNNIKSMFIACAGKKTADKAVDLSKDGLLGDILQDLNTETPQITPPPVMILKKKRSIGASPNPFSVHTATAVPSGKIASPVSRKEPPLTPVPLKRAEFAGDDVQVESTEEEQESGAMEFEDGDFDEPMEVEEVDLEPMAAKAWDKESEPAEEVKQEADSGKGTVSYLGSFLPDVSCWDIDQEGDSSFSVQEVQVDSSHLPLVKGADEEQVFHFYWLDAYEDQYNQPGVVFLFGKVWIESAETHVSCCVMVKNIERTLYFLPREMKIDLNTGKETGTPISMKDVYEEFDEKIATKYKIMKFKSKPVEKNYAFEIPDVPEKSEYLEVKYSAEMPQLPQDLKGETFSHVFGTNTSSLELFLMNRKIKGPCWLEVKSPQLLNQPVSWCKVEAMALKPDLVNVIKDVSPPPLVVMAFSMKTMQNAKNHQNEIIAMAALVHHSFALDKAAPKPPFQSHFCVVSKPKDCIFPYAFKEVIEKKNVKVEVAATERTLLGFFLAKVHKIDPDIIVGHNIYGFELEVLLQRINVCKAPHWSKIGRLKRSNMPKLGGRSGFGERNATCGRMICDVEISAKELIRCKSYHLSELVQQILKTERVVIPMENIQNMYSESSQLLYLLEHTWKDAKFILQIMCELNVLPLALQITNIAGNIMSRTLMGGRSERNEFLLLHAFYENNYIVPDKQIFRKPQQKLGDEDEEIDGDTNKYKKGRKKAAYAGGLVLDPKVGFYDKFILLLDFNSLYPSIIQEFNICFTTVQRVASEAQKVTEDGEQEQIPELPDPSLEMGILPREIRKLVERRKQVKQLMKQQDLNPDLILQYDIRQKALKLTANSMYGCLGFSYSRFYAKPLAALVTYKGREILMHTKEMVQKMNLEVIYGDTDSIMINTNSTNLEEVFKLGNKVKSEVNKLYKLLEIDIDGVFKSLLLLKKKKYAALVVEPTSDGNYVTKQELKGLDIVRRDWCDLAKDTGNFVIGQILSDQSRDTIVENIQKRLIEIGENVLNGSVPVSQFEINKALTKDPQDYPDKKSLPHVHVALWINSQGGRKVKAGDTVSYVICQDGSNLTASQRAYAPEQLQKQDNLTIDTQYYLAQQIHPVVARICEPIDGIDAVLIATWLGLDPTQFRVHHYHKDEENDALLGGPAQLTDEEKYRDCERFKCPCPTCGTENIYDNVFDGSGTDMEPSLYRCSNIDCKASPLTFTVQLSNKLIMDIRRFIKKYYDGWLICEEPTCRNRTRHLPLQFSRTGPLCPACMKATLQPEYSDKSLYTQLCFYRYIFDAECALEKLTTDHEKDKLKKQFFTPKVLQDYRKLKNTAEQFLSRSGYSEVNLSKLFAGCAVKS
# supercoiled ΦX174 DNA = assay: unwinding and rewinding of negatively supercoiled DNA, agarose gel electrophoresis; assay type: biochemical
# Source text: Confirmation that thiocoraline and BE-22179 bind to DNA with bisintercalation was derived from their ability to induce the unwinding of negatively supercoiled DNA. This was established by their ability to gradually decrease the agarose gel electrophoresis mobility of supercoiled ΦX174 DNA (unwinding) at increasing concentrations followed by a return to normal mobility (rewinding) at even higher concentrations. Under the conditions employed, echinomycin unwound ΦX174 DNA at a 0.044 agent/base pair ratio (FIG. 11 and FIG. 12). Thiocoraline completely unwound ΦX174 DNA at a higher 0.11 agent/base pair ratio, whereas BE-22179 required even higher concentrations producing the unwinding at an agent/base pair ratio of 1.1. […] Thus, the distinctions in 1 and 2 and echinomycin detected here appear to be related to the nature of the cyclic depsipeptide and not the structure of the chromophore.
# FIG. 8 is a table of comparative DNA binding properties. ^aCalf thymus DNA, KB=apparent binding constant determined by fluorescence quenching. The value in paren-theses is the agent/base pair ratio at saturated high-affinity binding and may be considered a measure of the selectivity of binding. ^bAgent/base pair ratio required to unwind negatively supercoiled FX174 DNA (form I to form II gel mobility, 0.9% agarose gel). ^cAgent/base pair ratio required to induce complete rewinding or positive super-coiling of FX174 DNA (form II to form I gel mobility, 0.9% agarose gel). ^dBinding constant established by footprinting at a 5′-CCGC site (FIG. 9).
# (A) Lane 1, untreated supercoiled FX174 DNA, 95% form 1 and 5% form II; lanes 2-8, thiocoraline-treated FX174 DNA; lanes 9-14, echinomycin-treated FX174 DNA. The [agent]-to-[base pair] ratios were 0.022 (lanes 2 and 9), 0.033 (lanes 3 and 10), 0.044 (lanes 4 and 11), 0.066 (lanes 5 and 12), 0.11 (lanes 6 and 13), 0.22 (lanes 7 and 14), and 0.44 (lane 8). (B) Lane 1, untreated supercoiled FX174 DNA, lanes 2-12, BE-22179-treated FX174 DNA. The [agent]-to-[base pair] ratios were 0.022, (lane 2), 0.033 (lane 3), 0.044 (lane 4), 0.066 (lane 5), 0.11 (lane 6), 0.22 (lane 7), and 0.33 (lane 8), 0.44 (lane 9), 0.66 (lane 10), 1.1 (lane 11), and 2.2 (lane 12). (C) Lane 1, untreated supercoiled FX174 DNA, 95% form 1 and 5% form II; lanes 2-8, thiocoraline analogue (27)-treated FX174 DNA. The [agent]-to-[base pair] ratios were 0.022 (lane 2), 0.033 (lane 3), 0.044 (lane 4), 0.066 (lane 5), 0.11 (lane 6), 0.22 (lane 7), and 0.44 (lane 8).
compound,measurement,setting,value
"CSC[C@H]1C(=O)SC[C@@H](NC(=O)c2nc3ccccc3cc2O)C(=O)NCC(=O)N(C)[C@H]2CSSC[C@@H](C(=O)N1C)N(C)C(=O)CNC(=O)[C@H](NC(=O)c1nc3ccccc3cc1O)CSC(=O)[C@H](CSC)N(C)C2=O [Thiocoraline] (I: {Quinaldoyl(3-OH)}-[dC]G[NMeC][NMeC](Me) / II: {Quinaldoyl(3-OH)}-[dC]G[NMeC][NMeC](Me); thioester I:1-II:C, I:C-II:1; disulfide I:3-II:3)",inhibition of DNA polymerase α,DNA polymerase α,does inhibit
same,agent/base pair ratio required to unwind supercoiled DNA,supercoiled ΦX174 DNA; form I to form II gel mobility,0.11 agent/base pair ratio
same,agent/base pair ratio for complete rewinding of supercoiled DNA,supercoiled ΦX174 DNA; form II to form I gel mobility,0.44 agent/base pair ratio
